Reference: patent publication EP2997966A1, “Naphthyl Sulfonamide Pyrrolidine Derivatives as KEAP-1 Modulators for the Treatment of Diabetes, Obesity, Dyslipidemia and Related Disorders” (SANOFI, priority 2014, dated 2016)
Like-named read-outs stand apart in the source and are kept apart here.

Biological target: T1, human Keap1 kelch domain (amino acids Ala321-Thr609) (Homo sapiens, UniProt Q14145)
T1 construct: human Keap1 kelch domain (amino acids Ala321-Thr609)
Assay: Keap1-Nrf2 peptide binding assay (fluorescence polarisation)
Conditions: binding to fluorescently labeled human Nrf2 peptide, 20 nM Keap1 kelch domain, 50 nM peptide
Experimental: Keap1-Nrf2 peptide binding assay
Two microliters of test compound in reaction buffer (phosphate-buffered saline, 2 mM DL-dithiothreitol, 0.015 % (v/v) Brij-35) containing 6 % (v/v) DMSO were mixed with two microliters of the Keap1 kelch domain in reaction buffer in a black 384-well small volume microtiter plate and incubated at ambient temperature for 15 minutes. Thereafter, two microliters were added of the fluorescently labeled Nrf2 peptide in reaction buffer, and the mixture was incubated for a further 30 minutes at ambient temperature. Final concentrations of the Keap1 kelch domain and the fluorescently labeled Nrf2 peptide were 20 nM and 50 nM, respectively.
Fluorescence polarization (FP) was measured at excitation and emission wavelengths of 635 nm and 660 nm, respectively. Positive controls for binding (two microliters of reaction buffer containing 6 % (v/v) DMSO instead of test compound in the same buffer) and negative controls (as positive controls, but without Keap1 kelch domain) were included on each microtiter plate.

T1 sequence (Q14145 321-609): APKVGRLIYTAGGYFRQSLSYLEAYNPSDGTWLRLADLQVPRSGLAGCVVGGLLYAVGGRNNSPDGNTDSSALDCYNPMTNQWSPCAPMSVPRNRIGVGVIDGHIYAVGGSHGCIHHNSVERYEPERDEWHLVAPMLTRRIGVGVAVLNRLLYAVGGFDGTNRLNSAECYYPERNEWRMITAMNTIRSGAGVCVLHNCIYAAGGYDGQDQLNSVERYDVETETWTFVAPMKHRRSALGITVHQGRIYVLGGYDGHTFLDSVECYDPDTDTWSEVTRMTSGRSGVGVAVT

IC50 (read-out: IC50) | Structure (SMILES) | IC50
0.19 µM | CCCCCCCCn1nc(C)c(S(=O)(=O)Nc2ccc(N3CC[C@@H](C(=O)O)C3)c3ccccc23)c1C [Example 65, (3R)-1-[4-[(3,5-dimethyl-1-octyl-pyrazol-4-yl)sulfonylamino]-1-naphthyl]pyrrolidine-3-carboxylic acid] | 
2.9 µM | O=C(O)[C@@H]1CCN(c2ccc(NS(=O)(=O)c3cc(Cl)sc3Cl)c3ccccc23)C1 [Example 34, (3R)-1-[4-[(2,5-dichloro-3-thienyl)sulfonylamino]-1-naphthyl]pyrrolidine-3-carboxylic acid] | 
2.9 µM | Cc1c(Cl)cccc1S(=O)(=O)Nc1ccc(N2CC[C@H](C(=O)O)C2)c2ccccc12 [Example 16, (3S)-1-[4-[(3-chloro-2-methylphenyl)sulfonylamino]-1-naphthyl]pyrrolidine-3-carboxylic acid] | 
0.26 µM | Cc1c(S(=O)(=O)Nc2ccc(N3CC[C@@H](C(=O)O)C3)c3ccccc23)c2ccccc2n1C [Example 63, (3R)-1-[4-[(1,2-dimethylindol-3-yl)sulfonylamino]-1-naphthyl]pyrrolidine-3-carboxylic acid] | 
1 µM | Cc1nn(C)c(Cl)c1S(=O)(=O)Nc1ccc(N2CCC(C)(C(=O)O)C2)c2ccccc12 (stereo not shown) [Example 10, 1-[4-[(5-chloro-1,3-dimethyl-pyrazol-4-yl)sulfonylamino]-1-naphthyl]-3-methyl-pyrrolidine-3-carboxylic acid] | 
0.5 µM | Cn1ccc2c(S(=O)(=O)Nc3ccc(N4CC[C@@H](C(=O)O)C4)c4ccccc34)cccc21 [Example 64, (3R)-1-[4-[(1-methylindol-4-yl)sulfonylamino]-1-naphthyl]pyrrolidine-3-carboxylic acid] | 
 | COc1ccc(S(=O)(=O)Nc2ccc(N3CC[C@@H](C(=O)O)C3)c3ccccc23)c(OC)c1 [Example 47, (3R)-1-[4-[(2,4-dimethoxyphenyl)sulfonylamino]-1-naphthyl]pyrrolidine-3-carboxylic acid] | 6.1 µM
1.9 µM | CC(=O)Nc1nc(C)c(S(=O)(=O)Nc2ccc(N3CC[C@@H](C(=O)O)C3)c3ccccc23)s1 [Example 31, (3R)-1-[4-[(2-acetamido-4-methyl-thiazol-5-yl)sulfonylamino]-1-naphthyl]pyrrolidine-3-carboxylic acid] | 
2.8 µM | Cc1c(S(=O)(=O)Nc2ccc(N3CC[C@@H](C(=O)O)C3)c3ccccc23)cnn1C1CCCC1 [Example 50, (3R)-1-[4-[(1-cyclopentyl-5-methyl-pyrazol-4-yl)sulfonylamino]-1-naphthyl]pyrrolidine-3-carboxylic acid] | 
0.5 µM | Cc1cc(C)c(C)c(S(=O)(=O)Nc2ccc(N3CCC[C@H](C(=O)O)C3)c3ccccc23)c1C [Example 59, (3S)-1-[4-[(2,3,5,6-tetramethylphenyl)sulfonylamino]-1-naphthyl]piperidine-3-carboxylic acid] | 
 | Cc1nn(C)c(Cl)c1S(=O)(=O)Nc1ccc(N2CC[C@@H](C(=O)O)C2)c2ncccc12 [Example 52, (3R)-1-[5-[(5-chloro-1,3-dimethyl-pyrazol-4-yl)sulfonylamino]-8-quinolyl]pyrrolidine-3-carboxylic acid] | 2.7 µM
 | Cc1cc(C)c(C)c(S(=O)(=O)Nc2ccc(N3CCCC(C(=O)O)C3)c3ncccc23)c1C (stereo not shown) [Example 15, 1-[5-[(2,3,5,6-tetramethylphenyl)sulfonylamino]-8-quinolyl]piperidine-3-carboxylic acid; 2,2,2-trifluoroacetic acid] | 24 µM
 | O=C(O)[C@H]1CCN(c2ccc(NS(=O)(=O)c3cccc(Cl)c3Cl)c3ccccc23)C1 [Example 20, (3S)-1-[4-[(2,3-dichlorophenyl)sulfonylamino]-1-naphthyl]pyrrolidine-3-carboxylic acid] | 8.6 µM
 | O=C(O)[C@@H]1CCN(c2ccc(NS(=O)(=O)c3cccc4c3OCCO4)c3ccccc23)C1 [Example 74, (3R)-1-[4-(2,3-dihydro-1,4-benzodioxin-5-ylsulfonylamino)-1-naphthyl]pyrrolidine-3-carboxylic acid] | 9.1 µM
 | Cc1nc(C)c(S(=O)(=O)Nc2ccc(N3CC[C@H](C(=O)O)C3)c3ccccc23)s1 [Example 24, (3S)-1-[4-[(2,4-dimethylthiazol-5-yl)sulfonylamino]-1-naphthyl]pyrrolidine-3-carboxylic acid] | 4.3 µM
7.1 µM | COc1ccc(F)c(S(=O)(=O)Nc2ccc(N3CC[C@H](C(=O)O)C3)c3ccccc23)c1 [Example 27, (3S)-1-[4-[(2-fluoro-5-methoxyphenyl)sulfonylamino]-1-naphthyl]pyrrolidine-3-carboxylic acid] | 
2.9 µM | O=C(O)[C@H]1CCN(c2ccc(NS(=O)(=O)c3cc(Cl)cc(Cl)c3)c3ccccc23)C1 [Example 17, (3S)-1-[4-[(3,5-dichlorophenyl)sulfonylamino]-1-naphthyl]pyrrolidine-3-carboxylic acid] | 
0.6 µM | Cc1cc(C)c(C)c(S(=O)(=O)Nc2ccc(C3=CCC(C(=O)O)CC3)c3ccccc23)c1C (stereo not shown) [Example 57, 4-[4-[(2,3,5,6-tetramethylphenyl)sulfonylamino]-1-naphthyl]cyclohex-3-ene-1-carboxylic acid] | 
 | Cc1nn(C)c(C)c1S(=O)(=O)Nc1ccc(N2CC[C@@H](C(=O)O)C2)c2ccccc12 [Example 38, (3R)-1-[4-[(1,3,5-trimethylpyrazol-4-yl)sulfonylamino]-1-naphthyl]pyrrolidine-3-carboxylic acid] | 0.9 µM
6.5 µM | Cc1c(S(=O)(=O)Nc2ccc(N3CC[C@@H](C(=O)O)C3)c3ccccc23)cnn1-c1ccccc1 [Example 39, (3R)-1-[4-[(5-methyl-1-phenyl-pyrazol-4-yl)sulfonylamino]-1-naphthyl]pyrrolidine-3-carboxylic acid] | 
 | O=C(O)[C@@H]1CCN(c2ccc(NS(=O)(=O)c3cc(Cl)ccc3Cl)c3ccccc23)C1 [Example 48, (3R)-1-[4-[(2,5-dichlorophenyl)sulfonylamino]-1-naphthyl]pyrrolidine-3-carboxylic acid] | 2.5 µM
 | Cc1ccc(Cl)cc1S(=O)(=O)Nc1ccc(N2CC[C@@H](C(=O)O)C2)c2ccccc12 [Example 43, (3R)-1-[4-[(5-chloro-2-methylphenyl)sulfonylamino]-1-naphthyl]pyrrolidine-3-carboxylic acid] | 1.2 µM
